Test results as given in US9469613B2, “(N-(cyanomethyl)-4-(2-(4-morpholinophenylamino)pyrimidin-4-yl)benzamide” (Gilead Sciences, Inc., priority 2014, dated 2016).
Structures can show the parent of a compound that is named as a salt.

How the values were obtained:
[1] = Phase 1 single dose PK study, Form II tablets vs Form I capsule, healthy subjects; details: human, in vivo
Procedure: Tablets comprising CYT-0387 dihydrochloride monohydrate Form II (doses equivalent to 100, 150, 200, and 300 mg of the free base) and capsules comprising CYT-0387 dihydrochloride anhydrous Form I (dose equivalent to 300 mg of the free base) were evaluated in a Phase 1, single dose study in healthy subjects.
Intensive PK and PD sampling occurred from 0.5 hour up to 36 hours post dose. Safety was monitored throughout the study. A parametric analysis of variance (ANOVA) using a mixed-effects model was used to fit to the natural logarithmic transformation of PK parameters (AUC and Cmax). The 90% confidence intervals were constructed for the ratio of geometric means of CYT-0387 dihydrochloride monohydrate Form II tablets at 100, 150, 200 and 300 mg vs CYT-0387 dihydrochloride anhydrous Form I capsule at 300 mg, using equivalence bounds of 70% to 143% for AUC and Cmax. The pharmacokinetic data is represented in Table 5.

[2] = Stability of 100 mg tablet formulation with different propyl gallate levels; format: physicochemical; details: for Total Degradation: 100 mg tablet, 40° C./75% RH
Procedure: Next, the stability of 100 mg tablet formulation comprising CYT-0387 Form II was examined in the presence of 0%, 0.2%, 0.5%, or 1.0% propyl gallate at 25° C./60% RH (relative humidity) or 40° C./75% RH for up to 6 months. The degradation profiles were determined at month 0, 1, 3, and 6.

[3] = test system: phospho-SMAD1/5/8 in HepG2 cells; assay: BMP6-mediated phospho-SMAD1/5/8 levels in HepG2 cells (immunoblot); format: cell-based; details: for phospho-SMAD1/5/8 levels (normalized percentage): HepG2, 10 ng/mL BMP6 30 minutes, 100% = vehicle
Procedure: HepG2 cells were preincubated for 2 hours with increasing concentrations of CYT-0387 (0.02 to 10 μM CYT387) in the presence of 1% FBS and then stimulated for 30 minutes with 10 ng/mL of BMP6. Protein was extracted from the lysed cells and analyzed using immunoblot analysis with the antibodies specific for phospho-SMAD1 (Ser463/465), phospho-SMAD5 (Ser463/465) and phospho-SMAD8 (Ser465/467) and β-actin. Raw phospho-SMAD1/5/8 levels were quantified using densitometry software (Image Studio) and normalized to β-actin levels. The percentage of phospho-SMAD1/5/8 levels was calculated (100% is equal to phospho-SMAD1/5/8 levels in vehicle treated cells stimulated with 10 ng/mL of BMP6) and summarized in Table 9.

[4] = biological target: ALK3 (BMPR1a) (Homo sapiens (Human), UniProt P36894); assay: Biochemical binding assay (DiscoveRx)
ALK3 (BMPR1a), sequence (P36894 24-532): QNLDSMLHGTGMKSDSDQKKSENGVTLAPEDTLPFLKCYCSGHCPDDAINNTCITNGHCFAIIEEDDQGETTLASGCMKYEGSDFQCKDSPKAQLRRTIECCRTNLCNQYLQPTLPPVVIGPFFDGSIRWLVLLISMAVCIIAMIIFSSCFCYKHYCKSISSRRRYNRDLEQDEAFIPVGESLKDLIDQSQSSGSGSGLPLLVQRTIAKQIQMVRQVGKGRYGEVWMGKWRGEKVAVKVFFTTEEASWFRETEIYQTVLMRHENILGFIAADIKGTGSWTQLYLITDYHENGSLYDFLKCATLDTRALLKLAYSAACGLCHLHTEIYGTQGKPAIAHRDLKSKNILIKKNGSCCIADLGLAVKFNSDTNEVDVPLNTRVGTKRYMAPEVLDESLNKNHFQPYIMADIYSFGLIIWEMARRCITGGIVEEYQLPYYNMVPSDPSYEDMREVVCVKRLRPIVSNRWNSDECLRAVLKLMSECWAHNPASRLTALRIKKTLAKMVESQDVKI
Procedure: (§1) In addition, biochemical binding assays (DiscoveRx) and in vitro enzyme inhibition assays (LanthaScreen, Life Technologies) were conducted to determine the binding affinity and inhibition activities of CYT-0387 to Type-I BMPR-kinases (ALK2, ALK3, and ALK6) were conducted. Transforming growth factor beta receptor 1 (TGFBR1, ALK5) was used as a control to determine the selectivity to Type-I BMPR-kinases.

[5] = biological target: ALK2 (Acvr1) (Homo sapiens (Human), UniProt Q04771); assay: Biochemical binding assay (DiscoveRx)
ALK2 (Acvr1), sequence (Q04771 21-509): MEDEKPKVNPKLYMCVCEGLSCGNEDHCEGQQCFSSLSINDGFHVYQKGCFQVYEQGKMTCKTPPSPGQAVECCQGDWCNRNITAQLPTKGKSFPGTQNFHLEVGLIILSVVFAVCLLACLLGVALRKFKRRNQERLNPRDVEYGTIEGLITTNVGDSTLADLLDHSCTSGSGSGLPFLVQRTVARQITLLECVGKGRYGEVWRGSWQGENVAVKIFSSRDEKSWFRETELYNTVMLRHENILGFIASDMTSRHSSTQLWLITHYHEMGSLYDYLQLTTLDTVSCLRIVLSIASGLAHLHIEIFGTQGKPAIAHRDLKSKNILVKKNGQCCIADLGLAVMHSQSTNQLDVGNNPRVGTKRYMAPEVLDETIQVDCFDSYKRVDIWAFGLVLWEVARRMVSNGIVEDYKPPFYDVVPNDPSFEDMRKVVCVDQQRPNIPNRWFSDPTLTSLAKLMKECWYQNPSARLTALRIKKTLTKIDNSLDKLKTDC
Procedure: as §1

[6] = biological target: ALK6 (BMPR1B) (Homo sapiens (Human), UniProt O00238); assay: Biochemical binding assay (DiscoveRx)
ALK6 (BMPR1B), sequence (O00238 14-502): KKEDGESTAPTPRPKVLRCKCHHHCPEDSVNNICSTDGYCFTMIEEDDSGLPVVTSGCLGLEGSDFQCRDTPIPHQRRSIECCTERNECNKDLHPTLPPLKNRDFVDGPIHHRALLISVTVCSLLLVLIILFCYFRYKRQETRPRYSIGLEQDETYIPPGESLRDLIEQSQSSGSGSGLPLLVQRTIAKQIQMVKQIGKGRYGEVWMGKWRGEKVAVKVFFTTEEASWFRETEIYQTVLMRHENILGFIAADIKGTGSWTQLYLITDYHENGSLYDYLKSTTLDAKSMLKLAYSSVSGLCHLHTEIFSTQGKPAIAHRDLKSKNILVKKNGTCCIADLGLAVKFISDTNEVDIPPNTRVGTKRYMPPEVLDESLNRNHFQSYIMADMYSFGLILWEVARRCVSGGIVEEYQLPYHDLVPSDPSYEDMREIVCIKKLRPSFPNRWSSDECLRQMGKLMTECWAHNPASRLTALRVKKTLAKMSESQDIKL
Procedure: as §1

[7] = test system: hepcidin production in HepG2 cells; assay: BMP6-mediated hepcidin induction in HepG2 cells (qRT-PCR); format: cell-based; details: for hepcidin fold-change induction (normalized percentage): HepG2, 10 ng/mL BMP6 6 hours, 100% = vehicle
Text: This study characterized the effect of CYT-0387 on hepcidin production in HepG2 cells, a hepatocellular carcinoma cell line. Bone morphogenic proteins (BMPs) is shown to be involved in the transcriptional induction of hepcidin in hepatocytes by facilitating the association of constitutively active Type-II BMP receptor kinases (BMPR-kinase) with Type-I BMPR-kinase (Andriopoulos, et al. Nat Genet, 2009. 41(4): p482-7; Zhao, et al., J Clin Invest, 2013. 123(6): p2337-43).
HepG2 cells were preincubated for 2 hours with CYT-0387 (ranging from 0 μM to 10 μM) in the presence of 1% FBS then stimulated for 6 hours with 10 ng/mL of BMP6. Total RNA was isolated from the cells and analyzed for the levels of hepcidin by qRT-PCR. GUSB (glucuronidase, beta) was used as a house keeping control to normalize the levels measured by qRT-PCR. The percentage of hepcidin fold-change induction was calculated (100% is equal to hepcidin induction in vehicle treated cells) and summarized in Table 9.

[8] = test system: hyperproliferative diseases (PV, ET, PMF), myelofibrosis; details: cited from earlier work
[9] = biological target: TGFBR1 (Homo sapiens (Human), UniProt P36897); assay: In vitro enzyme inhibition assay (LanthaScreen); format: biochemical; details: TGFBR1, n = 3
TGFBR1, sequence (P36897 34-503): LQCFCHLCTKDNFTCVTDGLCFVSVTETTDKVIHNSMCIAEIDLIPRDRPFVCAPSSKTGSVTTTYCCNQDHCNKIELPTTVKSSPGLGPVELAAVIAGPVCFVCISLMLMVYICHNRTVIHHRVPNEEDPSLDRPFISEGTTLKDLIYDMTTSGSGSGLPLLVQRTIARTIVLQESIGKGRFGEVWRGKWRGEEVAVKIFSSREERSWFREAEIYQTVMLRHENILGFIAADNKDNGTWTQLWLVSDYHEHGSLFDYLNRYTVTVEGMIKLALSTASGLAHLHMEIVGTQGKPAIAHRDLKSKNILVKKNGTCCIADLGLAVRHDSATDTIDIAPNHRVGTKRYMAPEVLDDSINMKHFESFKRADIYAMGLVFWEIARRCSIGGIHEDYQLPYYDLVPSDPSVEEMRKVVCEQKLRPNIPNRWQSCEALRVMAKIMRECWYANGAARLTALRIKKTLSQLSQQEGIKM

In the case of N#CCNC(=O)c1ccc(-c2ccnc(Nc3ccc(N4CCOCC4)cc3)n2)cc1 [CYT-0387 Form II, N-(cyanomethyl)-4-(2-(4-morpholinophenylamino)pyrimidin-4-yl)benzamide dihydrochloride monohydrate Form II], the “bioavailability compared to CYT-0387 dihydrochloride anhydrous Form I and CYT-0387 free base” value [1] is reported as “increased bioavailability”, the “Total Degradation” value ([2]; propyl gallate 0%, month 0) is reported as 0.10% and the “Total Degradation” value ([2]; propyl gallate 0%, month 1) is reported as 0.68%. The “Total Degradation” value ([2]; propyl gallate 0%, month 3) was 1.01%, the “Total Degradation” value ([2]; propyl gallate 0%, month 6) was 1.28% and the “Total Degradation” value ([2]; propyl gallate 0.2%, month 0) was 0.10%. The “Total Degradation” value ([2]; propyl gallate 0.2%, month 1) was 0.34%, the “Total Degradation” value ([2]; propyl gallate 0.2%, month 3) was 0.67% and the “Total Degradation” value ([2]; propyl gallate 0.2%, month 6) was 0.80%. The “Total Degradation” value ([2]; propyl gallate 0.5%, month 0) was 0.11%, the “Total Degradation” value ([2]; propyl gallate 0.5%, month 1) was 0.39% and the “Total Degradation” value ([2]; propyl gallate 0.5%, month 3) was 0.67%. For the same compound, the “Total Degradation” value ([2]; propyl gallate 0.5%, month 6) was 0.95%, the “Total Degradation” value ([2]; propyl gallate 1.0%, month 0) was 0.14% and the “Total Degradation” value ([2]; propyl gallate 1.0%, month 1) was 0.44%. The “Total Degradation” value ([2]; propyl gallate 1.0%, month 3) was 0.87%, the “Total Degradation” value ([2]; propyl gallate 1.0%, month 6) was 1.34% and the “degradation in 100 mg tablet” value ([2]; 25° C./60% RH, propyl gallate at 0.2%, 0.5%, and 1.0% (data not shown)) was “reduced”.
In the case of N#CCNC(=O)c1ccc(-c2ccnc(Nc3ccc(N4CCOCC4)cc3)n2)cc1 [CYT-0387, N-(cyanomethyl)-4-(2-(4-morpholinophenylamino)pyrimidin-4-yl)benzamide], the “phospho-SMAD1/5/8 levels (normalized percentage)” value ([3]; 0.020 μM) is reported as 83%, the “phospho-SMAD1/5/8 levels (normalized percentage)” value ([3]; 0.039 μM) is reported as 80% and the “phospho-SMAD1/5/8 levels (normalized percentage)” value ([3]; 0.078 μM) is reported as 91%. The “phospho-SMAD1/5/8 levels (normalized percentage)” value ([3]; 0.156 μM) was 96%, the “phospho-SMAD1/5/8 levels (normalized percentage)” value ([3]; 0.313 μM) was 88% and the “phospho-SMAD1/5/8 levels (normalized percentage)” value ([3]; 0.625 μM) was 91%. The “phospho-SMAD1/5/8 levels (normalized percentage)” value ([3]; 1.25 μM) was 65%, the “phospho-SMAD1/5/8 levels (normalized percentage)” value ([3]; 2.5 μM) was 52% and the “phospho-SMAD1/5/8 levels (normalized percentage)” value ([3]; 5.0 μM) was 40%. For the same compound, the “phospho-SMAD1/5/8 levels (normalized percentage)” value ([3]; 10.0 μM) was 31%, the “effect on BMP6-mediated phospho-SMAD1/5/8 levels” value ([3]; 0.02 to 10 μM, HepG2) was “dose-dependent inhibition” and the Kd [4] was 1000 nM. The Kd [5] was 25 nM, the Kd [6] was 19 nM and the “effect on BMP6-mediated hepcidin induction” value ([7]; 0 μM to 10 μM, HepG2) was “dose-dependent inhibition”. For the same compound, the “hepcidin fold-change induction (normalized percentage)” value ([7]; 0.020 μM) was 115%, the “hepcidin fold-change induction (normalized percentage)” value ([7]; 0.039 μM) was 91% and the “hepcidin fold-change induction (normalized percentage)” value ([7]; 0.078 μM) was 74%. For the same compound, the “hepcidin fold-change induction (normalized percentage)” value ([7]; 0.156 μM) was 86%, the “hepcidin fold-change induction (normalized percentage)” value ([7]; 0.313 μM) was 89% and the “hepcidin fold-change induction (normalized percentage)” value ([7]; 0.625 μM) was 45%. For the same compound, the “hepcidin fold-change induction (normalized percentage)” value ([7]; 1.25 μM) was 28%, the “hepcidin fold-change induction (normalized percentage)” value ([7]; 2.5 μM) was 6% and the “hepcidin fold-change induction (normalized percentage)” value ([7]; 5.0 μM) was −4%. For the same compound, the “hepcidin fold-change induction (normalized percentage)” value ([7]; 10.0 μM) was −3%, the “efficacy in treating hyperproliferative diseases (PV, ET, PMF)” value ([8]; clinical studies) was “effective” and the “anemia and/or spleen responses” value ([8]; patients having myelofibrosis) was “improvement”. It also gave an IC50 [9] of 205 nM.
